Counter-ions that a name gives are not always drawn.
Assays:
horse thrombin = assay: Thrombin Time; format: biochemical; conditions: 500 μM final; difference to the control; 37° C.; citrate plasma, ca. 3 U/ml horse thrombin
Procedure: (§1) 9 parts of fresh blood from healthy donors was mixed with one part of sodium citrate solution (0.11 mol/l) and it was centrifuged for 10 minutes at room temperature at ca. 3000 r.p.m. The plasma was removed by pipette and can be stored at room temperature for ca. 8 hours.
200 μl citrate plasma is incubated for 2 minutes at 37° C. in a ball coagulometer (KC10 from the Amelung Company). 10 μl dimethylsulfoxide (DMSO) or a solution of the active substance in DMSO is added to 190 μl pre-heated thrombin reagent (Boehringer Mannheim GmbH; contains ca. 3 U/ml horse thrombin and 0.0125 M Ca^++). On addition of 200 μl of this solution to the plasma a stopwatch is started and the time at which coagulation starts is determined. The thrombin time is ca. 24 sec. in control measurements and is extended by the active substances. If no coagulation occurred in the measurements after 5 minutes the experiment was stopped (>300).
The measured thrombin times in seconds are given in table 1 as a difference to the control. The concentrations of the active substances in the final volume were 500 μM (TT 500).

human factor Xa = human factor Xa (Homo sapiens, UniProt P00742); assay: biochemical
Procedure: The kinetic measurements were carried out at pH=7.5 and 25° C. in 0.1 M phosphate buffer that contained 0.2 M sodium chloride and 0.5% polyethylene glycol 6000 (see below for preparation) in polystyrene semi-microcuvettes in a total volume of 1 ml. The reactions were started by addition of enzyme to pre-incubated solutions that contained either dimethyldisulfoxide (control) or solutions of the test substance in DMSO (inhibitor stock solutions: 10 mM in DMSO). The increase in absorbance at 405 nm due to the release of p-nitroaniline from the substrate was monitored over a time period of 12 minutes.
The inhibition constants Ki were determined as follows. […] KM and Vmax were determined from a measurement series (constant inhibitor concentration, variable substrate concentrations) by a non-linear fit to the equation [formula]
The Ki value is obtained by non-linear regression from the entire series of measurements with 16 sets of data (measurements at 4 different substrate concentrations and each with 4 different inhibitor concentrations) from the equation [formula] in which VMax denotes the maximum rate in the absence of an inhibitor, KM denotes the Michaelis constant and [S] the substrate concentration. […]

citrate plasma = assay: Activated Partial Thromboplastin Time (APTT); format: biochemical, human; conditions: difference to the control, 37° C.
Procedure: as §1
Activated Partial Thromboplastin Time (APTT)
100 μl citrate plasma and 100 μl APTT reagent (Stago Diagnostics/Boehringer Mannheim GmbH; contains cephalin lyophilisate with a microcrystalline kieselguhr activator) are incubated for 3 minutes at 37° C. together with 10 μl dimethylsulfoxide (DMSO) or 10 μl of a solution of the active substance in DMSO in a ball coagulometer (KC10 from the Amelung Company). On addition of 100 μl 0.025 M calcium chloride solution a stopwatch is started and the time at which coagulation starts is determined. The APTT is ca. 28-35 seconds in the control measurements and is extended by the active substances. If no coagulation occurred in the measurements after 5 minutes the experiment was stopped (>300).
The measured APTT times in seconds are given in table 1 as a difference to the control. The concentrations of the active substances in the final volume were 100 μM (APTT 100), 10 μM (APTT 10), 1 μM (APTT 1), 0.1 μM (APTT 0.1).

human factor Xa, sequence (P00742 235-488 limits assumed): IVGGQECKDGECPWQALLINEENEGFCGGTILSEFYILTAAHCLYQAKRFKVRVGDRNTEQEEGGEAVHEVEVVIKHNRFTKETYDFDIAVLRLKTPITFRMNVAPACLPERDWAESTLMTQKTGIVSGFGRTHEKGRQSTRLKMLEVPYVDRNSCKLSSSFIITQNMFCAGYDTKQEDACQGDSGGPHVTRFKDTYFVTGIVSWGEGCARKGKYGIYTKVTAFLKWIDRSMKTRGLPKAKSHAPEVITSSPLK
human factor Xa, sequence (P00742 41-179 partner limits assumed): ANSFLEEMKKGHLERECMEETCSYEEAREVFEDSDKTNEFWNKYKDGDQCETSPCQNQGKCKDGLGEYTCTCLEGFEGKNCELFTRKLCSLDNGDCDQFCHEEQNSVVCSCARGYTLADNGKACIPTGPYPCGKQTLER

CCOP(=O)(OCC)C(Oc1ccc2ccc(C(=N)N)cc2c1)c1ccc(OC2CCN(C(C)=N)CC2)cc1 (stereo not drawn) [Example 1, (7-Carbamimidoyl-naphthalen-2-yloxy)-[{4-[1-(1-imino-ethyl)-piperidin-4-yloxy]-phenyl}-methyl)-phosphonic acid diethyl ester-dihydrochloride]
TT 500 (horse thrombin): 49 s
Ki (human factor Xa): 2 nM
APTT 0.1 (citrate plasma; 0.1 μM final): 8 s
APTT 1 (citrate plasma; 1 μM final): 45 s
APTT 10 (citrate plasma; 10 μM final, >300 = no coagulation after 5 minutes): > 300 s
APTT 100 (citrate plasma; 100 μM final, >300 = no coagulation after 5 minutes): > 300 s

From patent publication US6037334A, “Phosphonates, process for preparing the same and medicaments” (Roche Diagnostics GmbH, priority 1996, dated 2000)
